Data from ChEMBL document CHEMBL6096668, “Design and functional studies of xylene-based cyclic mimetics of SOCS1 protein” (Eur J Med Chem, 2025).
Numbered stars: 1 amine (or outer) side, 2 acyl side, 3 side chain; on linkers, the order of the positions; unused ones are H or OH. Bridge positions count the residues as written; N and C are the ends. Square brackets hold non-standard residues; d marks the D form. Peptide text beside a SMILES is read from it. * marks the point of attachment. 1Nal = N[C@@H](Cc1cccc2ccccc12)C(=O)O; TBMB = c1c(C[*:1])cc(C[*:3])cc1C[*:2]; Acm = CC(=O)NC*

Assays:
[1] = target: T1, Tyrosine-protein kinase JAK2 (Homo sapiens, UniProt O60674); assay: Binding affinity to his-tagged JAK2 (826 to 1132 residues) (unknown origin) assessed as dissociation constant incubated for 30 mins by MST analysis
T1 sequence (O60674 whole entry, the tested form may be a part): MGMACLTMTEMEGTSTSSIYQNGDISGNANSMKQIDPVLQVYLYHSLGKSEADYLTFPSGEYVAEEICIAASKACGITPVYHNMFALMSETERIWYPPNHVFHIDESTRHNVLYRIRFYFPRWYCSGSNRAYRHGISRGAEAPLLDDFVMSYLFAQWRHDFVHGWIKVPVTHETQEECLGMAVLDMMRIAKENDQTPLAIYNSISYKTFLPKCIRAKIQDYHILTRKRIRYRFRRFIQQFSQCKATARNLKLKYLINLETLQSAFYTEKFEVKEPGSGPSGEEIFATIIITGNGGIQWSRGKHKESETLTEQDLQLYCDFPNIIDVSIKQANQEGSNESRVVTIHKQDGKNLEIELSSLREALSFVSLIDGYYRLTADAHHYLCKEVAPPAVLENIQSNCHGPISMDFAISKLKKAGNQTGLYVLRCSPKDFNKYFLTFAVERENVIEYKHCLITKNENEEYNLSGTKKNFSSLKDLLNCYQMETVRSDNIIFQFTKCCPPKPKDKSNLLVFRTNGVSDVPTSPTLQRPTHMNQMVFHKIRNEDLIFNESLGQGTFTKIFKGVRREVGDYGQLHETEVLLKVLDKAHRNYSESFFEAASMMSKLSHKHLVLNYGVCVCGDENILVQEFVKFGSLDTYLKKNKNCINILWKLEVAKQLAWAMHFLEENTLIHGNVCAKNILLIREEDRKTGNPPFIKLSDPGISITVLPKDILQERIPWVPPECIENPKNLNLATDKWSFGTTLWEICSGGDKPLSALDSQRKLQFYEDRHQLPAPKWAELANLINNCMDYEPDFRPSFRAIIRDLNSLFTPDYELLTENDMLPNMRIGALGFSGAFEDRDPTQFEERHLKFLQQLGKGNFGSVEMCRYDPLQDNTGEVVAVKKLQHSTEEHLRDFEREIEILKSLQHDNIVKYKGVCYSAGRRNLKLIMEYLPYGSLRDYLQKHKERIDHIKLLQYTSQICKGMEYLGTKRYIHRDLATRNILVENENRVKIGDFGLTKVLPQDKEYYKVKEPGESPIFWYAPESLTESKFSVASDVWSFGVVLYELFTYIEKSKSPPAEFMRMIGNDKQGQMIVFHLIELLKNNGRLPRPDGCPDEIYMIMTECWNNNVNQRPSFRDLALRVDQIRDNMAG

[2] = target: T1, Tyrosine-protein kinase JAK2; assay: Inhibition of JAK2 (unknown origin) using srctide as substrate preincubated with compound for 1 hr followed by substrate addition and measured after 15 mins in presence of ATP by LC-MS analysis
[3] = Stability of the compound in fetal bovine serum measured after 30 h by RP-HPLC analysis; settings: cattle

Row | SMILES | Kd [1] [µM] | IC50 [2] [µM] | Stability [3]
1 | CC(=O)NCSC[C@@H]1NC(=O)[C@H]([C@@H](C)O)NC(=O)[C@H](NC(C)=O)CSCc2cccc(c2)CSC[C@@H](C(=O)N[C@@H](Cc2cnc[nH]2)C(N)=O)NC(=O)[C@H](CCCNC(=N)N)NC(=O)[C@H](Cc2cccc3ccccc23)NC(=O)[C@H]([C@@H](C)O)NC(=O)[C@H](CCC(N)=O)NC(=O)[C@H](CCCNC(=N)N)NC1=O | 6.8 | 2.2 | –
2 | CC(=O)NCSC[C@@H]1NC(=O)[C@H]([C@@H](C)O)NC(=O)[C@@H](NC(C)=O)CSCc2cc3cc(c2)CSC[C@H](NC(=O)[C@H](CCCNC(=N)N)NC1=O)C(=O)N[C@@H]([C@@H](C)O)C(=O)N[C@@H](Cc1cccc2ccccc12)C(=O)N[C@@H](CCCNC(=N)N)C(=O)N[C@H](C(=O)N[C@@H](Cc1cnc[nH]1)C(N)=O)CSC3 (Ac-CTC(Acm)RCT[1Nal]RCH-NH2; linker 1-5-9 via TBMB) | 130 | 100 | –
3 | CC(=O)NCSC[C@@H]1NC(=O)[C@H]([C@@H](C)O)NC(=O)[C@@H](NC(C)=O)CC(=O)NCCCC[C@@H](C(=O)N[C@@H](Cc2cnc[nH]2)C(N)=O)NC(=O)[C@H](CCCNC(=N)N)NC(=O)[C@H](Cc2cccc3ccccc23)NC(=O)[C@H]([C@@H](C)O)NC(=O)[C@H](CCC(N)=O)NC(=O)[C@H](CCCNC(=N)N)NC1=O (Ac-DTC(Acm)RQT[1Nal]RKH-NH2; lactam 1-9) | – | – | Stable
4 | COc1cc(/C=C/C(=O)CC(=O)/C=C/c2ccc(O)c(OC)c2)ccc1O [CURCUMIN] | ~90 | – | –
